Measured values: the NIST ThermoML archive (doi:10.1021/je050414d)
Numbers after ± are expanded uncertainties.

Assay: xn = mol fraction of the nth substance listed
Details: 101 kPa, Liquid; for viscosity: Capillary tube (Ostwald / Ubbelohde) method

CCOC(=O)OCC [diethyl carbonate] + CC(C)O
Details	mass density [kg/m3]	viscosity [mPa·s]
293.15 K, x1 = 0.1015	812.95 ± 2.5	1.586 ± 0.012
293.15 K, x1 = 0.1993	837.12 ± 2.3	1.252 ± 0.01
293.15 K, x1 = 0.3027	861.52 ± 2.1	1.073 ± 0.009
293.15 K, x1 = 0.4029	880.88 ± 1.9	0.946 ± 0.009
293.15 K, x1 = 0.5018	901.57 ± 1.7	0.865 ± 0.008
293.15 K, x1 = 0.5905	914.48 ± 1.6	0.827 ± 0.008
293.15 K, x1 = 0.7267	936.22 ± 1.4	0.791 ± 0.008
293.15 K, x1 = 0.8053	947.93 ± 1.3	0.781 ± 0.008
293.15 K, x1 = 0.8494	954.32 ± 1.2	0.782 ± 0.008
293.15 K, x1 = 1	975 ± 1	0.8 ± 0.008
298.15 K, x1 = 0.1015	808.12 ± 2.6	1.393 ± 0.011
298.15 K, x1 = 0.1993	831.98 ± 2.3	1.119 ± 0.009
298.15 K, x1 = 0.3027	855.03 ± 2.1	0.964 ± 0.009
298.15 K, x1 = 0.4029	875.34 ± 1.9	0.86 ± 0.008
298.15 K, x1 = 0.5018	893.55 ± 1.8	0.791 ± 0.008
298.15 K, x1 = 0.5905	908.68 ± 1.6	0.76 ± 0.008
298.15 K, x1 = 0.7267	930.3 ± 1.4	0.731 ± 0.008
298.15 K, x1 = 0.8053	941.94 ± 1.3	0.726 ± 0.008
298.15 K, x1 = 0.8494	948.31 ± 1.3	0.726 ± 0.008
298.15 K, x1 = 1	968.97 ± 1.1	0.746 ± 0.008
303.15 K, x1 = 0.1015	803.27 ± 2.6	1.223 ± 0.01
303.15 K, x1 = 0.1993	826.84 ± 2.4	0.996 ± 0.009
303.15 K, x1 = 0.3027	849.57 ± 2.2	0.867 ± 0.008
303.15 K, x1 = 0.4029	869.48 ± 2	0.782 ± 0.008
303.15 K, x1 = 0.5018	887.62 ± 1.8	0.726 ± 0.008
303.15 K, x1 = 0.5905	902.71 ± 1.7	0.7 ± 0.008
303.15 K, x1 = 0.7267	924.09 ± 1.5	0.677 ± 0.007
303.15 K, x1 = 0.8053	935.6 ± 1.4	0.674 ± 0.007
303.15 K, x1 = 0.8494	941.89 ± 1.3	0.676 ± 0.007
303.15 K, x1 = 1	962.39 ± 1.1	0.695 ± 0.008
313.15 K, x1 = 0.1015	793.12 ± 2.7	0.964 ± 0.009
313.15 K, x1 = 0.1993	816.46 ± 2.5	0.806 ± 0.008
313.15 K, x1 = 0.3027	839.13 ± 2.3	0.716 ± 0.008
313.15 K, x1 = 0.4029	859.2 ± 2.1	0.657 ± 0.007
313.15 K, x1 = 0.5018	877.18 ± 1.9	0.618 ± 0.007
313.15 K, x1 = 0.5905	892.18 ± 1.8	0.601 ± 0.007
313.15 K, x1 = 0.7267	913.63 ± 1.6	0.588 ± 0.007
313.15 K, x1 = 0.8053	925.25 ± 1.5	0.588 ± 0.007
313.15 K, x1 = 0.8494	931.59 ± 1.4	0.59 ± 0.007
313.15 K, x1 = 1	952.32 ± 1.2	0.61 ± 0.007
323.15 K, x1 = 0.1015	781.71 ± 2.8	0.78 ± 0.008
323.15 K, x1 = 0.1993	804.58 ± 2.6	0.668 ± 0.008
323.15 K, x1 = 0.3027	826.95 ± 2.4	0.604 ± 0.007
323.15 K, x1 = 0.4029	846.73 ± 2.2	0.562 ± 0.007
323.15 K, x1 = 0.5018	864.62 ± 2	0.535 ± 0.007
323.15 K, x1 = 0.5905	879.49 ± 1.9	0.524 ± 0.007
323.15 K, x1 = 0.7267	900.94 ± 1.7	0.517 ± 0.007
323.15 K, x1 = 0.8053	912.58 ± 1.6	0.519 ± 0.007
323.15 K, x1 = 0.8494	918.93 ± 1.5	0.521 ± 0.007
323.15 K, x1 = 1	939.78 ± 1.3	0.541 ± 0.007
333.15 K, x1 = 0.1015	771.12 ± 2.9	0.637 ± 0.007
333.15 K, x1 = 0.1993	793.64 ± 2.7	0.559 ± 0.007
333.15 K, x1 = 0.3027	815.77 ± 2.5	0.515 ± 0.007
333.15 K, x1 = 0.4029	835.41 ± 2.3	0.485 ± 0.007
333.15 K, x1 = 0.5018	853.29 ± 2.1	0.467 ± 0.007
333.15 K, x1 = 0.5905	868.1 ± 2	0.46 ± 0.007
333.15 K, x1 = 0.7267	889.56 ± 1.8	0.458 ± 0.007
333.15 K, x1 = 0.8053	901.29 ± 1.7	0.461 ± 0.007
333.15 K, x1 = 0.8494	907.67 ± 1.6	0.464 ± 0.007
333.15 K, x1 = 1	928.69 ± 1.4	0.483 ± 0.007
343.15 K, x1 = 0.1015	760.13 ± 3	0.523 ± 0.007
343.15 K, x1 = 0.1993	782.3 ± 2.8	0.47 ± 0.007
343.15 K, x1 = 0.3027	804.17 ± 2.6	0.44 ± 0.007
343.15 K, x1 = 0.4029	823.53 ± 2.4	0.421 ± 0.007
343.15 K, x1 = 0.5018	841.14 ± 2.2	0.41 ± 0.007
343.15 K, x1 = 0.5905	855.92 ± 2.1	0.407 ± 0.007
343.15 K, x1 = 0.7267	877.3 ± 1.9	0.409 ± 0.007
343.15 K, x1 = 0.8053	888.96 ± 1.8	0.413 ± 0.007
343.15 K, x1 = 0.8494	895.36 ± 1.7	0.417 ± 0.007
343.15 K, x1 = 1	916.33 ± 1.6	0.435 ± 0.007

CCOC(=O)OCC [diethyl carbonate] + CO
Details	mass density [kg/m3]	viscosity [mPa·s]
293.15 K, x1 = 0.1045	839.93 ± 2.2	0.599 ± 0.007
293.15 K, x1 = 0.2128	874.69 ± 1.9	0.622 ± 0.007
293.15 K, x1 = 0.2835	892.08 ± 1.8	0.634 ± 0.007
293.15 K, x1 = 0.4025	915.12 ± 1.6	0.655 ± 0.007
293.15 K, x1 = 0.5161	932.04 ± 1.4	0.679 ± 0.007
293.15 K, x1 = 0.6057	942.83 ± 1.3	0.7 ± 0.007
293.15 K, x1 = 0.7015	952.67 ± 1.2	0.723 ± 0.008
293.15 K, x1 = 0.8	961.18 ± 1.1	0.747 ± 0.008
293.15 K, x1 = 0.8845	967.44 ± 1.1	0.772 ± 0.008
293.15 K, x1 = 1	975 ± 1	0.801 ± 0.008
298.15 K, x1 = 0.1045	834.64 ± 2.3	0.567 ± 0.007
298.15 K, x1 = 0.2128	869.33 ± 2	0.588 ± 0.007
298.15 K, x1 = 0.2835	886.65 ± 1.8	0.598 ± 0.007
298.15 K, x1 = 0.4025	909.56 ± 1.6	0.616 ± 0.007
298.15 K, x1 = 0.5161	926.35 ± 1.4	0.637 ± 0.007
298.15 K, x1 = 0.6057	937.11 ± 1.4	0.656 ± 0.007
298.15 K, x1 = 0.7015	946.89 ± 1.3	0.677 ± 0.007
298.15 K, x1 = 0.8	955.37 ± 1.2	0.696 ± 0.007
298.15 K, x1 = 0.8845	961.65 ± 1.1	0.715 ± 0.008
298.15 K, x1 = 1	968.97 ± 1.1	0.746 ± 0.008
303.15 K, x1 = 0.1045	829.8 ± 2.3	0.527 ± 0.007
303.15 K, x1 = 0.2128	864.12 ± 2	0.546 ± 0.007
303.15 K, x1 = 0.2835	881.42 ± 1.9	0.556 ± 0.007
303.15 K, x1 = 0.4025	904.25 ± 1.6	0.573 ± 0.007
303.15 K, x1 = 0.5161	921 ± 1.5	0.593 ± 0.007
303.15 K, x1 = 0.6057	931.74 ± 1.4	0.611 ± 0.007
303.15 K, x1 = 0.7015	941.49 ± 1.3	0.63 ± 0.007
303.15 K, x1 = 0.8	949.97 ± 1.2	0.651 ± 0.007
303.15 K, x1 = 0.8845	956.23 ± 1.2	0.671 ± 0.007
303.15 K, x1 = 1	962.39 ± 1.1	0.695 ± 0.008
313.15 K, x1 = 0.1045	819.68 ± 2.4	0.462 ± 0.007
313.15 K, x1 = 0.2128	853.64 ± 2.1	0.48 ± 0.007
313.15 K, x1 = 0.2835	870.71 ± 2	0.49 ± 0.007
313.15 K, x1 = 0.4025	893.3 ± 1.8	0.503 ± 0.007
313.15 K, x1 = 0.5161	909.94 ± 1.6	0.521 ± 0.007
313.15 K, x1 = 0.6057	920.59 ± 1.5	0.537 ± 0.007
313.15 K, x1 = 0.7015	930.26 ± 1.4	0.556 ± 0.007
313.15 K, x1 = 0.8	938.67 ± 1.3	0.572 ± 0.007
313.15 K, x1 = 0.8845	944.93 ± 1.3	0.587 ± 0.007
313.15 K, x1 = 1	952.32 ± 1.2	0.61 ± 0.007
323.15 K, x1 = 0.1045	809.45 ± 2.5	0.408 ± 0.007
323.15 K, x1 = 0.2128	843 ± 2.2	0.424 ± 0.007
323.15 K, x1 = 0.2835	859.86 ± 2.1	0.432 ± 0.007
323.15 K, x1 = 0.4025	882.25 ± 1.9	0.444 ± 0.007
323.15 K, x1 = 0.5161	898.72 ± 1.7	0.461 ± 0.007
323.15 K, x1 = 0.6057	909.28 ± 1.6	0.477 ± 0.007
323.15 K, x1 = 0.7015	918.88 ± 1.5	0.493 ± 0.007
323.15 K, x1 = 0.8	927.24 ± 1.4	0.507 ± 0.007
323.15 K, x1 = 0.8845	933.43 ± 1.4	0.523 ± 0.007
323.15 K, x1 = 1	939.78 ± 1.3	0.541 ± 0.007
333.15 K, x1 = 0.1045	796.31 ± 2.7	0.363 ± 0.007
333.15 K, x1 = 0.2128	830.09 ± 2.3	0.376 ± 0.007
333.15 K, x1 = 0.2835	847.11 ± 2.2	0.384 ± 0.007
333.15 K, x1 = 0.4025	869.76 ± 2	0.397 ± 0.007
333.15 K, x1 = 0.5161	886.44 ± 1.8	0.41 ± 0.007
333.15 K, x1 = 0.6057	897.15 ± 1.7	0.426 ± 0.007
333.15 K, x1 = 0.7015	906.9 ± 1.6	0.441 ± 0.007
333.15 K, x1 = 0.8	915.39 ± 1.6	0.454 ± 0.007
333.15 K, x1 = 0.8845	921.71 ± 1.5	0.466 ± 0.007
333.15 K, x1 = 1	928.69 ± 1.4	0.483 ± 0.007
